System: all types and subtypes of influenza tested
Type: biochemical, influenza virus
Conditions: peramivir only 2019/20

**Q.** For `CCC(CC)[C@H](NC(C)=O)[C@@H]1[C@H](O)[C@@H](C(=O)O)C[C@H]1N=C(N)N` [Peramivir, peramivir], which “activity of NAI in the neuraminidase inhibition assay” value is on record?
**A.** The value was “most potent inhibitor”.

Reference: paper PMC9939793 (Infection and Drug Resistance, 2023)
